Test results as given in patent publication US6355799B1, “Substituted benzene compounds, process for their preparation, and herbicidal and defoliant compositions containing them” (ISK Americas Incorporated, priority 1997, dated 2002).

Columns and labels:
Format in all cases: in vivo
[1] = test system: redroot pigweed (Amaranthus retroflexus, AMARE); assay: Pre-emerge test, greenhouse herbicide activity screening; conditions: for phytotoxicity rating AMARE: pre-emerge, 14 days after application, scale 0-100; for Pre-emerge Herbicidal Activity AMARE: phytotoxicity rating 0-100, 14 days after application
In short: (§1)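 Herbicidal damage is scored 0 (none) to 100 (complete plant death) two weeks after a simulated field spray. Rates span 15–1000 g ai/ha, delivered in acetone at 187 l/ha. For post-emergence treatments, plants have 2–3 leaves and the spray carries 0.25% v/v non-ionic surfactant.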

[2] = test system: barnyardgrass (Echinochloa crus-galli, ECHCG); assay: as above; conditions: for phytotoxicity rating ECHCG: pre-emerge, 14 days after application, scale 0-100; for Pre-emerge Herbicidal Activity ECHCG: phytotoxicity rating 0-100, 14 days after application
In short: (§2)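 Applied at 15–1000 g ai/ha from acetone in 187 l/ha spray volume. Post-emergence applications included 0.25% v/v non-ionic surfactant and reached plants sown 8–21 days before. Pre-emergence applications were incorporated by surface watering. Efficacy or crop damage was rated on a 0–100 scale after 14 days.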

[3] = test system: green foxtail (Setaria viridis, SETVI); assay: as above; conditions: for phytotoxicity rating SETVI: pre-emerge, 14 days after application, scale 0-100; for Pre-emerge Herbicidal Activity SETVI: phytotoxicity rating 0-100, 14 days after application
In short: as §2

[4] = test system: ivyleaf morningglory (Ipomoea hederacea, IPOHE); assay: as above; conditions: for phytotoxicity rating IPOHE: pre-emerge, 14 days after application, scale 0-100; for Pre-emerge Herbicidal Activity IPOHE: phytotoxicity rating 0-100, 14 days after application
In short: as §2

[5] = test system: johnsongrass (Sorghum halepense, SORHA); assay: as above; conditions: for phytotoxicity rating SORHA: pre-emerge, 14 days after application, scale 0-100; for Pre-emerge Herbicidal Activity SORHA: phytotoxicity rating 0-100, 14 days after application
In short: as §2

[6] = test system: lambsquarters (Chenopodium album, CHEAL); assay: as above; conditions: for phytotoxicity rating CHEAL: pre-emerge, 14 days after application, scale 0-100; for Pre-emerge Herbicidal Activity CHEAL: phytotoxicity rating 0-100, 14 days after application
In short: as §2

[7] = test system: large crabgrass (Digitaria sanguinalis, DIGSA); assay: as above; conditions: for phytotoxicity rating DIGSA: pre-emerge, 14 days after application, scale 0-100; for Pre-emerge Herbicidal Activity DIGSA: phytotoxicity rating 0-100, 14 days after application
In short: as §2

[8] = test system: sicklepod (Cassia obtusifolia, CASOB); assay: as above; conditions: for phytotoxicity rating CASOB: pre-emerge, 14 days after application, scale 0-100; for Pre-emerge Herbicidal Activity CASOB: phytotoxicity rating 0-100, 14 days after application
In short: as §2

[9] = test system: velvetleaf (Abutilon theophrasti, ABUTH); assay: as above; conditions: for phytotoxicity rating ABUTH: pre-emerge, 14 days after application, scale 0-100; for Pre-emerge Herbicidal Activity ABUTH: phytotoxicity rating 0-100, 14 days after application
In short: as §2

[10] = test system: field corn (Zea mays L., var. Dekalb 535, CORN); assay: Pre-emerge test, crop safety; conditions: for phytotoxicity rating CORN (crop damage): pre-emerge, 14 days after application, scale 0-100; for Pre-emerge Herbicidal Activity CORN: crop damage rating 0-100, 14 days after application
In short: (§3)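 Plants grown in 10 cm pots of sandy loam mix received acetone-dissolved compounds through a moving flat-fan nozzle. Doses ranged from 15 to 1000 g ai/ha. Pre-emerge pots were seeded one day earlier, post-emerge pots 8–21 days earlier. Fourteen days on, each pot was graded 0–100 for damage.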

[11] = test system: upland rice (Oryza sp., var. Tebonnet, RICE); assay: Pre-emerge test, crop safety; conditions: for phytotoxicity rating RICE (crop damage): pre-emerge, 14 days after application, scale 0-100; for Pre-emerge Herbicidal Activity RICE: crop damage rating 0-100, 14 days after application
In short: as §3

[12] = test system: barnyardgrass (Echinochloa crus-galli, ECHCG); assay: Post-emerge test, greenhouse herbicide activity screening; conditions: post-emerge, 14 days after application, rating scale 0-100
In short: as §1

[13] = test system: green foxtail (Setaria viridis, SETVI); assay: as above; conditions: post-emerge, 14 days after application, rating scale 0-100
In short: as §1

[14] = test system: ivyleaf morningglory (Ipomoea hederacea, IPOHE); assay: as above; conditions: post-emerge, 14 days after application, rating scale 0-100
In short: as §1

[15] = test system: johnsongrass (Sorghum halepense, SORHA); assay: as above; conditions: post-emerge, 14 days after application, rating scale 0-100
In short: as §1

[16] = test system: lambsquarters (Chenopodium album, CHEAL); assay: as above; conditions: post-emerge, 14 days after application, rating scale 0-100
In short: as §1

[17] = test system: large crabgrass (Digitaria sanguinalis, DIGSA); assay: as above; conditions: post-emerge, 14 days after application, rating scale 0-100
In short: as §1

[18] = test system: redroot pigweed (Amaranthus retroflexus, AMARE); assay: as above; conditions: post-emerge, 14 days after application
In short: as §1

[19] = test system: sicklepod (Cassia obtusifolia, CASOB); assay: as above; conditions: post-emerge, 14 days after application, rating scale 0-100
In short: as §1

[20] = test system: velvetleaf (Abutilon theophrasti, ABUTH); assay: as above; conditions: post-emerge, 14 days after application, rating scale 0-100
In short: as §1

[21] = test system: field corn (Zea mays L., var. Dekalb 535, CORN); assay: Post-emerge test, crop safety; conditions: post-emerge, 14 days after application, rating scale 0-100
In short: as §2

[22] = test system: upland rice (Oryza sp., var. Tebonnet, RICE); assay: Post-emerge test, crop safety; conditions: post-emerge, 14 days after application, rating scale 0-100
In short: as §2

[23] = 250 g ai/ha, rating scale 0-100

## COc1c(Cl)cc(F)c(-n2c(=O)cc(C(F)(F)F)n(C)c2=O)c1NC(=O)CSc1ccc2ccccc2c1 [2-169]
[1]; 63 g ai/ha
  phytotoxicity rating AMARE: 70
[1]; 250 g ai/ha
  phytotoxicity rating AMARE: 80
[2]; 63 g ai/ha
  phytotoxicity rating ECHCG: 0
[2]; 250 g ai/ha
  phytotoxicity rating ECHCG: 0
[3]; 63 g ai/ha
  phytotoxicity rating SETVI: 0
[3]; 250 g ai/ha
  phytotoxicity rating SETVI: 30
[4]; 63 g ai/ha
  phytotoxicity rating IPOHE: 10
[4]; 250 g ai/ha
  phytotoxicity rating IPOHE: 20
[5]; 63 g ai/ha
  phytotoxicity rating SORHA: 0
[5]; 250 g ai/ha
  phytotoxicity rating SORHA: 20
[6]; 63 g ai/ha
  phytotoxicity rating CHEAL: 65
[6]; 250 g ai/ha
  phytotoxicity rating CHEAL: 100
[7]; 63 g ai/ha
  phytotoxicity rating DIGSA: 0
[7]; 250 g ai/ha
  phytotoxicity rating DIGSA: 80
[8]; 63 g ai/ha
  phytotoxicity rating CASOB: 20
[8]; 250 g ai/ha
  phytotoxicity rating CASOB: 30
[9]; 63 g ai/ha
  phytotoxicity rating ABUTH: 0
[9]; 250 g ai/ha
  phytotoxicity rating ABUTH: 90
[10]; 63 g ai/ha
  phytotoxicity rating CORN (crop damage): 0
[10]; 250 g ai/ha
  phytotoxicity rating CORN (crop damage): 0
[11]; 63 g ai/ha
  phytotoxicity rating RICE (crop damage): 10
[11]; 250 g ai/ha
  phytotoxicity rating RICE (crop damage): 40
[12]; 63 g ai/ha
  ECHCG phytotoxicity rating: 0
[12]; 250 g ai/ha
  ECHCG phytotoxicity rating: 0
[13]; 63 g ai/ha
  SETVI phytotoxicity rating: 0
[13]; 250 g ai/ha
  SETVI phytotoxicity rating: 0
[14]; 63 g ai/ha
  IPOHE phytotoxicity rating: 50
[14]; 250 g ai/ha
  IPOHE phytotoxicity rating: 40
[15]; 63 g ai/ha
  SORHA phytotoxicity rating: 0
[15]; 250 g ai/ha
  SORHA phytotoxicity rating: 0
[16]; 63 g ai/ha
  CHEAL phytotoxicity rating: 30
[16]; 250 g ai/ha
  CHEAL phytotoxicity rating: 40
[17]; 63 g ai/ha
  DIGSA phytotoxicity rating: 0
[17]; 250 g ai/ha
  DIGSA phytotoxicity rating: 0
[18]; 63 g ai/ha, rating scale 0-100
  AMARE phytotoxicity rating: 10
[18]; [23]
  AMARE phytotoxicity rating: 0
[19]; 63 g ai/ha
  CASOB phytotoxicity rating: 10
[19]; 250 g ai/ha
  CASOB phytotoxicity rating: 10
[20]; 63 g ai/ha
  ABUTH phytotoxicity rating: 70
[20]; 250 g ai/ha
  ABUTH phytotoxicity rating: 80
[21]; 63 g ai/ha
  CORN phytotoxicity rating (crop damage): 10
[21]; 250 g ai/ha
  CORN phytotoxicity rating (crop damage): 10
[22]; 63 g ai/ha
  RICE phytotoxicity rating (crop damage): 10
[22]; 250 g ai/ha
  RICE phytotoxicity rating (crop damage): 10

## COc1c(Cl)cc(F)c(-n2c(=O)cc(C(F)(F)F)n(C)c2=O)c1NC(=O)Oc1ccccc1C(C)(C)C [4-27]
[1]; 63 g ai/ha
  Pre-emerge Herbicidal Activity AMARE: 70
[1]; 250 g ai/ha
  Pre-emerge Herbicidal Activity AMARE: 100
[2]; 63 g ai/ha
  Pre-emerge Herbicidal Activity ECHCG: 0
[2]; 250 g ai/ha
  Pre-emerge Herbicidal Activity ECHCG: 0
[3]; 63 g ai/ha
  Pre-emerge Herbicidal Activity SETVI: 30
[3]; 250 g ai/ha
  Pre-emerge Herbicidal Activity SETVI: 50
[4]; 63 g ai/ha
  Pre-emerge Herbicidal Activity IPOHE: 20
[4]; 250 g ai/ha
  Pre-emerge Herbicidal Activity IPOHE: 50
[5]; 63 g ai/ha
  Pre-emerge Herbicidal Activity SORHA: 0
[5]; 250 g ai/ha
  Pre-emerge Herbicidal Activity SORHA: 0
[6]; 63 g ai/ha
  Pre-emerge Herbicidal Activity CHEAL: 80
[6]; 250 g ai/ha
  Pre-emerge Herbicidal Activity CHEAL: 100
[7]; 63 g ai/ha
  Pre-emerge Herbicidal Activity DIGSA: 0
[7]; 250 g ai/ha
  Pre-emerge Herbicidal Activity DIGSA: 0
[8]; 63 g ai/ha
  Pre-emerge Herbicidal Activity CASOB: 0
[8]; 250 g ai/ha
  Pre-emerge Herbicidal Activity CASOB: 30
[9]; 63 g ai/ha
  Pre-emerge Herbicidal Activity ABUTH: 80
[9]; 250 g ai/ha
  Pre-emerge Herbicidal Activity ABUTH: 100
[10]; 63 g ai/ha
  Pre-emerge Herbicidal Activity CORN: 0
[10]; 250 g ai/ha
  Pre-emerge Herbicidal Activity CORN: 0
[11]; 63 g ai/ha
  Pre-emerge Herbicidal Activity RICE: 10
[11]; 250 g ai/ha
  Pre-emerge Herbicidal Activity RICE: 50
[12]; 63 g ai/ha
  phytotoxicity rating ECHCG: 0
[12]; 250 g ai/ha
  phytotoxicity rating ECHCG: 0
[13]; 63 g ai/ha
  phytotoxicity rating SETVI: 0
[13]; 250 g ai/ha
  phytotoxicity rating SETVI: 10
[14]; 63 g ai/ha
  phytotoxicity rating IPOHE: 70
[14]; 250 g ai/ha
  phytotoxicity rating IPOHE: 80
[15]; 63 g ai/ha
  phytotoxicity rating SORHA: 0
[15]; 250 g ai/ha
  phytotoxicity rating SORHA: 0
[16]; 63 g ai/ha
  phytotoxicity rating CHEAL: 60
[16]; 250 g ai/ha
  phytotoxicity rating CHEAL: 100
[17]; 63 g ai/ha
  phytotoxicity rating DIGSA: 0
[17]; 250 g ai/ha
  phytotoxicity rating DIGSA: 0
[18]; 63 g ai/ha, rating scale 0-100 (0 no damage, 100 complete death)
  phytotoxicity rating AMARE: 60
[18]; [23]
  phytotoxicity rating AMARE: 80
[19]; 63 g ai/ha
  phytotoxicity rating CASOB: 20
[19]; 250 g ai/ha
  phytotoxicity rating CASOB: 40
[20]; 63 g ai/ha
  phytotoxicity rating ABUTH: 70
[20]; 250 g ai/ha
  phytotoxicity rating ABUTH: 100
[21]; 63 g ai/ha
  phytotoxicity rating CORN (crop damage): 5
[21]; 250 g ai/ha
  phytotoxicity rating CORN (crop damage): 10
[22]; 63 g ai/ha
  phytotoxicity rating RICE (crop damage): 0
[22]; 250 g ai/ha
  phytotoxicity rating RICE (crop damage): 10
